How the values were obtained:
hGLUT1 [1] = target: T1, hGLUT1 (Homo sapiens, UniProt P11166); experiment: [3H]-2-deoxy-D-glucose uptake inhibition assay in CHO-hGLUT1 cells; type: cell-based
T1 sequence (P11166 1-492): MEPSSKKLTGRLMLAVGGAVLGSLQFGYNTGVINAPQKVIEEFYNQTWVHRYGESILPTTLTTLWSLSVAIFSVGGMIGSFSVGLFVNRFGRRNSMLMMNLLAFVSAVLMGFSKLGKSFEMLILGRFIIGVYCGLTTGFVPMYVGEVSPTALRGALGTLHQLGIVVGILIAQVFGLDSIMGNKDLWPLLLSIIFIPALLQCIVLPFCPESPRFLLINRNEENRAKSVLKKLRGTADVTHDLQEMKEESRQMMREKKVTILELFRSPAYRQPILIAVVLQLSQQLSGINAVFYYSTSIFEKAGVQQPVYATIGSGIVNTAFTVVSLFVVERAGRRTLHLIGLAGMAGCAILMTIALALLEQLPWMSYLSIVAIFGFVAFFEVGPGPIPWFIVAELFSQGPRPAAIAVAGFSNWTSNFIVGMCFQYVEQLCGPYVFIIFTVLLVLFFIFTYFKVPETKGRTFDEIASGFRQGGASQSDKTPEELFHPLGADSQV

hGLUT1 [2] = target: T1, hGLUT1; settings: known hGLUT1 inhibitors; cited from earlier work

Row | IC50 (hGLUT1 [1]) | Compound | LE (ligand efficiency) (hGLUT1 [2])
1 | 23 µM | O=C(CCc1ccc(O)cc1)c1c(O)cc(O)cc1O[C@@H]1O[C@H](CO)[C@@H](O)[C@H](O)[C@H]1O [PUG-5, phlorizin] | –
2 | – | C=C1[C@@H](C)[C@H]2[C@H](Cc3ccccc3)NC(=O)[C@]23OC(=O)/C=C/[C@H](O)CCC[C@@H](C)C/C=C/[C@H]3[C@@H]1O [cytochalasin B] | 0.265 kcal/mol/HA
3 | – | C=C[C@@]1(C)CC(=O)[C@]2(O)[C@@]3(C)[C@@H](O)CCC(C)(C)[C@@H]3[C@H](O)[C@H](OC(C)=O)[C@@]2(C)O1 [forskolin] | 0.270 kcal/mol/HA

— article PMC5356226 (ACS chemical biology, 2016)
